From EPA's ToxValDB 9.5
Where “and” joins values, the source holds several entries; their conditions need not be identical. Equal entries are not always repeated.

What was measured:
[1] = tested on: Rattus norvegicus; conditions: subchronic, oral
[2] = tested on: Sus scrofa; conditions: subchronic; duration: 90 days; oral; diet; M/F; Not specified; Urinary, Hepatic
[3] = tested on: Homo sapiens; conditions: clinical; duration: 16 days; oral; M/F; plasma cholinesterase inhibition
[4] = tested on: Rattus norvegicus; conditions: uterotrophic, Active
[5] = tested on: Mus musculus; conditions: uterotrophic, Active
[6] = tested on: Ovis sp.; conditions: uterotrophic; duration: 14 days; injection; Active
[7] = tested on: Rattus norvegicus; assay: LD5; higher = less toxic; conditions: developmental; oral; drinking water; M/F; reduced pup body weight
[8] = tested on: Rattus norvegicus; conditions: repeat dose other; oral
[9] = tested on: Homo sapiens; conditions: clinical; duration: 6 hours; inhalation; M/F; neurological
[10] = tested on: Rattus norvegicus; conditions: developmental; oral; drinking water; M/F; reduced pup body weight
[11] = tested on: Mus musculus; conditions: developmental; inhalation; M/F; developmental toxicity (skeletal variations)
[12] = tested on: Rattus norvegicus; conditions: developmental; oral; drinking water; Fetus: Decreased birth weight
[13] = tested on: Mus musculus; conditions: developmental; duration: 10 days; inhalation; intermittent; Fetus: Decreased birth weight
[14] = tested on: Canidae; conditions: subchronic; duration: 13 weeks; oral; diet; F; Beagle
[15] = tested on: Oryctolagus sp.; conditions: uterotrophic; duration: 12 days; oral; Active
[16] = tested on: Sus scrofa; conditions: reproduction developmental; duration: 15 days; oral; diet; F; Not specified; Increased inter-estrus interval, concentrations of progesterone and prolonged maintenance of corpora lutea
[17] = tested on: Rattus norvegicus; conditions: oral
[18] = tested on: Oryctolagus sp.; conditions: acute
[19] = tested on: Oryctolagus sp.; assay: LD40; higher = less toxic; conditions: acute; dermal; occlusive; New Zealand
[20] = tested on: Cavia porcellus; conditions: acute; oral; Guinea Pig
[21] = tested on: Mus musculus
[22] = tested on: Mus musculus; assay: LD100; higher = less toxic; conditions: acute
[23] = tested on: Cavia porcellus; assay: LD0; higher = less toxic; conditions: acute; injection; subcutaneous; Guinea Pig
[24] = tested on: Canidae; assay: LD0; higher = less toxic; conditions: acute; injection; intravenous; Dog Other
[25] = tested on: Rattus norvegicus; assay: LD0; higher = less toxic; conditions: acute; injection; subcutaneous
[26] = tested on: Oryctolagus sp.; assay: LD0; higher = less toxic; conditions: acute; dermal
[27] = duration: 1 days, injection, subcutaneous
[28] = gavage, M, Sprague-Dawley, Clinical Observation: Salivation (transient) + Functional Observational Battery: Salivation Spontaneous motor activity (total ambulatory …
[29] = subchronic, duration: 13 weeks, diet, Fischer 344
[30] = subchronic, duration: 13 weeks, oral, diet, B6C3F1

For CCOCCOCCO [2-(2-Ethoxyethoxy)ethanol], which NOAEL ([1]; duration: 60 days, gavage, M, CD(BR), Deaths + Clinical Observation: Bloody urine LethargyProstration PiloerectionUnkempt hair coat Blood around the mouth and nose + Body Weight …) is on record?
Its NOAEL is 1340 mg/kg-day.

And the NOAEL ([1]; duration: 90 days, diet, M/F, CFE, Body Weight Changes: Terminal body weight decrease% + Food Consumption: decrease% + Urinalysis: Oxalate crystals increase% + Hematology: …)?
Its NOAEL is 0.5%.

And the NOAEL [2]?
The NOAEL was 167 mg/kg-day.

How did the LEL [3] turn out when O=P(O)(O)CCCl [Ethephon] was run?
The LEL was 0.5 mg/kg-day.

C[C@]12CC[C@@H]3c4ccc(O)cc4CC[C@H]3[C@@H]1C[C@@H](O)[C@@H]2O [Estriol] was tested. Which LEL ([4]; duration: 0.125 days, injection, subcutaneous) did it give?
The LEL was 0.001 mg/day.

And the LEL ([4]; duration: 0.25 days, injection, subcutaneous)?
The LEL was 0.001 mg/day.

And the LEL ([4]; duration: 1 days, dermal)?
Its LEL is 3 mg/L.

What about the LEL ([4]; duration: 1 days, injection, intraperitoneal) of the same compound?
Its LEL is 0.001 mg.

What about the “LEL (% (w/w))” value ([4]; duration: 2 days, implant) of the same compound?
Its value is 40.

And the “LEL (pellets)” value ([4]; duration: 2 days, implant)?
Its value is 4.

And the LEL ([4]; duration: 2 days, injection, subcutaneous)?
The LEL was 0.01 mg/day.

And the LEL ([4]; duration: 3 days, oral)?
Its LEL is 0.09 mg/kg-day.

And the “LEL (rat units)” value ([4]; duration: 5 days)?
The value was 1.

What about the LEL ([5]; duration: 0.17 days, injection, subcutaneous) of the same compound?
Its LEL is 2.88e-07 mg.

What about the LEL [5, 27] of the same compound?
The LEL was 0.0761 mg/kg-day.

What about the “LEL (gamma)” value ([5]; duration: 3 days, injection, subcutaneous) of the same compound?
The value was 0.04.

And the LEL ([5]; duration: 3 days, oral)?
The LEL was 0.93 mg/kg-day.

And the LEL [6]?
Its LEL is 0.001 mg/day.

For CCC(C)=O [Methyl ethyl ketone], which LD5 [7] is on record?
The LD5 was 639 mg/kg-day.

And the LOAEL [8]?
The LOAEL was 4570 mg/kg-day.

And the NOAEL [8]?
Its NOAEL is 1770 mg/kg-day.

And the LOAEL [9]?
The LOAEL was 292 mg/m3.

And the LOAEL [10]?
The LOAEL was 1770 mg/kg-day.

And the NOAEL [10]?
The NOAEL was 594 mg/kg-day.

And the LEC [11]?
Its LEC is 5200 mg/m3.

And the NOAEL [12]?
Its NOAEL is 1710 mg/kg-day.

What about the NOAEL [13] of the same compound?
The NOAEL was 2980 mg/m3.

Which NOAEL [14] does the source give for c1ccc2c(c1)Nc1ccccc1S2 [Phenothiazine] here?
The NOAEL was 1.59 mg/kg-day.

How did the NOEL ([1]; duration: 13 weeks, diet, M/F, Fischer 344, Body Weight Changes: decrease + Histopathology: Seminal vesicle-Atrophy Bone-Osteopetrosis Pituitary-Hyperplasia Mammary gland-Ductular …) turn out when C[C@H]1CCCC(=O)CCC/C=C/c2cc(O)cc(O)c2C(=O)O1 [Zearalenone] was run?
Its NOEL is < 2.88 mg/kg-day.

And the LEL ([4]; duration: 3 days, oral)?
Its LEL is 0.18 mg/day.

What about the LEL ([4]; duration: 3 days, oral, diet) of the same compound?
Its LEL is 1 mg/kg-day.

And the LEL ([4]; duration: 8 days, oral)?
The LEL was 1 mg/kg-day.

And the LEL [5, 27]?
Its LEL is 5 mg/kg-day.

And the LEL ([5]; duration: 7 days, oral)?
Its LEL is 1 mg/kg-day.

And the LEL ([5]; oral)?
Its LEL is 2 mg/kg-day.

What about the LEL [15] of the same compound?
Its LEL is 1 mg/kg-day.

What about the LOEL [16] of the same compound?
The LOEL was 0.2 mg/kg-day.

And the NOEL [16]?
The NOEL was 0.04 mg/kg-day.

How did the LOEL [1, 28] turn out when Cc1ccncc1 [4-Methylpyridine] was run?
Its LOEL is 20 mg/kg-day.

What about the NOEL [1, 28] of the same compound?
Its NOEL is 5 mg/kg-day.

What about the LD50 ([17]; acute, gavage, Sprague-Dawley) of the same compound?
Its LD50 is 841 mg/kg and 700 mg/kg.

What about the LD50 ([18]; dermal, occlusive, New Zealand) of the same compound?
Its LD50 is ≥ 126 mg/kg and ≤ 200 mg/kg.

And the LD40 [19]?
The LD40 was ≥ 200 mg/kg and ≤ 316 mg/kg.

What does the source list for NC(=Nc1ccccc1)Nc1ccccc1 [1,3-Diphenylguanidine]?
NOEL ([1]; diet, F, Fischer 344, Deaths + Clinical Observation: Ruffled fur Emacation Pale skin + Body Weight Changes: decrease + Food Consumption: decrease + Hematology: …): < 17 mg/kg-day; NOEL ([1]; diet, M/F, Fischer 344, Deaths + Clinical Observation: Ruffled fur Emacation Pale skin + Body Weight Changes: decrease + Food Consumption: decrease + Hematology: …): < 24 mg/kg-day; LD50 [20]: 250 mg/kg; NOAEL ([17]; developmental, duration: 10 days, gavage, Sprague-Dawley): 25 mg/kg-day; NOAEL ([17]; reproduction developmental, duration: 13 weeks, diet, Fischer 344, generation: F0): 750 ppm; NOAEL ([17]; reproduction developmental, duration: 10 days, gavage, F, Sprague-Dawley): 5 mg/kg-day and 10 mg/kg-day; LOAEL ([17]; short-term, duration: 14 days, diet, Sprague-Dawley): 300 ppm; NOAEL ([17]; short-term, duration: 28 days, diet): 100 ppm; LOAEL [17, 29]: 72 mg/kg-day; NOAEL [17, 29]: 48 mg/kg-day; NOAEL ([17]; subchronic, duration: 90 days, diet, Sprague-Dawley): 14.4 mg/kg-day; LD50 ([21]; acute, injection, Intraperitoneal): 75 mg/kg and ≥ 25 mg/kg and ≤ 50 mg/kg; NOAEL ([21]; developmental, duration: 19 days, oral, gavage, ICR): ≥ 10 mg/kg-day; NOAEL ([21]; reproduction developmental, duration: 8 weeks, oral, gavage, CD1, generation: F0): ≥ 16 mg/kg-day; NOAEL ([21]; reproduction developmental, duration: 19 days, oral, gavage, F, ICR): 4 mg/kg-day; LOAEL [21, 30]: 148 mg/kg-day; NOAEL [21, 30]: 98.5 mg/kg-day; LD50 ([18]; oral): 250 mg/kg and 246 mg/kg; LD100 ([22]; injection, subcutaneous): 50 mg/kg; LD100 ([22]; oral): 450 mg/kg; LD0 [23]: 200 mg/kg; LD0 [24]: 25 mg/kg; LD0 [25]: 50 mg/kg; LD0 [26]: > 2000 mg/kg
